Tests used:
[1] = test system: human myeloid leukemia cell line (HL-60); conditions: HL-60 with inducing agents; cited from earlier work
[2] = test system: hematopoietic recovery after cyclophosphamide; experiment: Hematopoietic recovery after cyclophosphamide (Example 37); assay type: in vivo, Balb/C mice; conditions: 5 μmoles/mouse/day i.p. 6 days; day 7; vs saline
Description: Twenty-four hours later and each day thereafter for a total of 6 days, mice were given a 0.4 ml i.p. injection of either physiological saline (controls), guanine (5 μmoles/mouse/day), or guanosine (5 μmoles/mouse/day). On day 7 all 10 mice in each of the three groups were bled, and then sacrificed by cervical dislocation. Spleens were removed and weighed, and complete blood cell counts performed.

leukocytes = conditions: 100 mg i.p.; after 10 hours and for 24 hours thereafter; cited from earlier work
[3] = test system: hematopoietic recovery after cyclophosphamide; experiment: Hematopoietic recovery after cyclophosphamide, acyl chain length (Example 38); assay type: in vivo, Balb/C mice; conditions: day 7; guanosine 5, acyl derivatives 2.5 μmoles/mouse/day i.p.
Description: Cyclophosphamide (CP) (275 mg/kg, i.p.) was administered to 70 Balb/C female mice weighing approximately 20 grams each. Twenty-four hours later and each day thereafter for a total of 6 days, mice were given a 0.4 ml i.p injection of either physiological saline (controls), Tween 80 (0.2%), guanosine (5 μmoles/mouse/day in 0.2% Tween 80), or 2.5 μmoles per mouse per day of one of the following acylated derivatives of guanosine in 0.2% Tween 80: triacetylguanosine, octanoylguanosine, lauroylguanosine, or palmitoylguanosine. On day 7 following CP administration all 10 animals from each of the 7 groups were bled, and then sacrificed by cervical dislocation. Spleens were removed and weighed, and complete blood counts performed.

[4] = test system: hematopoiesis in normal mice; experiment: Hematopoiesis in normal mice (Example 56); assay type: in vivo, Balb/C mice; conditions: day 5, 2.6 μmoles/mouse, 4 days
Description: Normal Balb/C female mice weighing approximately 20 grams each were given a daily 0.4 ml i.p. injection of either physiological saline (controls), palmitoylguanosine (2.6 μmoles/mouse), palmitoyldeoxyguanosine (2.6 μmoles/mouse), monopalmitoylguanosine 2',3'-acyclic dialcohol (2.6 μmoles/mouse), and palmitoyl-8-bromoguanosine (2.6 μmoles/mouse) for 4 days. On the fifth day all 3 animals in each of the 5 groups were bled and then sacrificed by cervical dislocation. Spleens were removed and weighed, and complete blood cell counts performed. Femoral bone marrow from each mouse was collected and a differential cell count performed on marrow smears.

[5] = test system: hematopoietic recovery after cyclophosphamide; experiment: Dose-response, hematopoietic recovery after cyclophosphamide (Example 54); assay type: in vivo, Balb/C mice
Description: (§1) Cyclophosphamide (CP) (275 mg/kg, i.p.) was administered to 112 Balb/C female mice weighing approximately 20 grams each. Twenty-four hours later and each day thereafter mice were given a 0.4 ml i.p. injection of either physiological saline (controls), or palmitoyldeoxyguanosine at one of six different doses: 0.04, 0.08, 0.2, 0.4, 0.6 or 0.8 μmoles/mouse. On days 5 and 7 following CP administration 8 animals from each of the 7 groups were bled and then sacrificed by cervical dislocation. Spleens were removed and weighed, and complete blood cell counts performed.

[6] = test system: hematopoietic recovery after cyclophosphamide; experiment: Dose-response, hematopoietic recovery after cyclophosphamide (Example 52); assay type: in vivo, Balb/C mice; conditions: days 5 and 7; 0.2-2.0 μmoles/mouse, except 0.2 on day 5
Description: Cyclophosphamide (CP) (275 mg/kg, i.p.) was administered to 85 Balb/C female mice weighing approximately 20 grams each. Twenty-four hours later and each day thereafter mice were given a 0.4 ml i.p. injection of either physiological saline (controls), or palmitoyldeoxyguanosine at one of four different doses: 0.2, 0.4, 1.0 or 2.0 μmoles/mouse). On days 5 and 7 following CP administration 9 and 8 animals, respectively, in each of the 5 groups were bled and then sacrificed by cervical dislocation. Spleens were removed and weighed, and complete blood cell counts performed.

[7] = test system: hematopoietic recovery after cyclophosphamide; experiment: Hematopoietic recovery after cyclophosphamide (Example 51); assay type: in vivo, Balb/C mice; conditions: day 5; 2 μmoles/mouse
Description: Cyclophosphamide (CP) (275 mg/kg, i.p.) was administered to 88 Balb/C female mice weighing approximately 20 grams each. Twenty-four hours later and each day thereafter mice were given a 0.4 ml i.p. injection of either Tween-80 (0.2%) (controls), 3'-O-palmitoyldeoxyguanosine (2 μmoles/mouse), butyryldeoxyguanosine (2 μmoles/mouse), palmitoyl-N-isobutyryldeoxyguanosine (2 μmoles/mouse), lauryldeoxyguanosine (2 μmoles/mouse), octanoyldeoxyguanosine (2 μmoles/mouse), and palmitoyldeoxyguanosine (2 μmoles/mouse). On days 5 and 7 following CP administration 6 or 7 animals in each of the 7 groups were bled and then sacrificed by cervical dislocation. Spleens were removed and weighed, and complete blood cell counts performed.

[8] = test system: Interleukin-3 dependent bone marrow cells; conditions: 10 micrograms per milliliter
Description: Bone marrow cells were obtained by flushing the femurs of three male B6D2F1 mice. The cells were plated at 5.0×10^5 /ml in MEM plus 10% fetal calf serum and 25 Units/ml of recombinant IL-3 for 24-48 hours. Non-adherent cells were then separated from adherent cells and maintained for an additional twelve days. IL-3 was washed from cells, and cells were plated in MEM plus 10% fetal calf serum in the presence or absence of IL-3 and with or without the addition of palmitoyldeoxyguanosine (10 micrograms per milliliter) or deoxyguanosine (10 micrograms per milliliter). Cells were counted using the trypan blue exclusion method, and the percent of dead cells (trypan blue positive) was determined at 24, 40, 60 and 84 hours following the wash.

[9] = test system: hematopoietic recovery after cyclophosphamide; experiment: Recovery of blood cell counts in rats after cyclophosphamide (Example 55); assay type: in vivo, F344 rats
Description: Cyclophosphamide (CP) (40 mg/kg, i.p.) was administered to 16 F344 male rats weighing approximately 200 grams each. Twenty-four hours later and each day thereafter rats were given a 0.5 ml i.p. injection of either physiological saline (controls), or palmitoyldeoxyguanosine at a dose of […]. On days 5, 7 and 10 following CP administration all 8 animals from both groups were bled and complete blood cell counts performed. On day 10 all of the rats were sacrificed and their spleens removed and weighed.

[10] = test system: hematopoietic recovery after cyclophosphamide; experiment: Comparative dose-response, hematopoietic recovery after cyclophosphamide (Example 53); assay type: in vivo, Balb/C mice
Description: as §1, with “to 96” for “to 112”, “(controls), palmitoylguanosine at one of four different doses: 0.2, 0.4, 1.0 or 2.0 μmoles/mouse),” for “(controls),”, “at a dose” for “at one”, “of 1.0” for “of six different doses: 0.04, 0.08, 0.2, 0.4, 0.6 or 0.8”, “the 6” for “the 7”

[11] = test system: hematopoietic recovery from fluorouracil; experiment: Pretreatment, hematopoietic recovery from fluorouracil (Example 57); assay type: in vivo, Balb/C mice
Description: Twenty-eight female Balb/C mice weighing approximately 20 grams each received a 0.4 ml i.p. injection of either physiological saline (controls), or palmitoyldeoxyguanosine (1 μmole/mouse) daily for three days. On the fourth day 5-flourouracil (5-FU) (150 mg/kg, i.p.) was administered to all 28 of the animals. On days 5, 8 and 11 following 5-FU administration 4 (day 5) or 5 (days 8 and 11) animals from both groups were bled and then sacrificed by cervical dislocation. Spleens were removed and weighed, and complete blood cell counts performed.

[12] = test system: hematopoietic recovery after cyclophosphamide; experiment: Histological examination of spleens and blood counts after cyclophosphamide (Example 46); assay type: in vivo, Balb/C mice; conditions: day 7
Description: Cyclophosphamide (CP) (275 mg/kg, i.p.) was administered to 30 Balb/C female mice weighing approximately 20 grams each. Twenty-four hours later and each day thereafter for a total of 6 days, mice were given a 0.4 ml i.p. injection of either physiological saline (controls), Tween 80 (0.5%), or octanoylguanosine (5.0 μmoles/mouse/day in 0.5% Tween 80). On day 7 following CP administration all 10 animals from each of the 3 groups were bled and then sacrificed by cervical dislocation. Spleens were removed, weighed, and fixed in 10% formalin for later histological examination. Complete blood cell counts were performed on the collected blood.

[13] = test system: hematopoietic recovery after cyclophosphamide; experiment: Surfactants, hematopoietic recovery after cyclophosphamide (Example 58); assay type: in vivo, Balb/C mice; conditions: day 7
Description: Twenty-four hours later and each day thereafter for a total of 6 days, mice were divided into seven groups and given a 0.4 ml i.p. injection of either physiological saline (controls), Tween 80 at each of three concentrations (0.02%, 0.2% and 1%) or octanoylguanosine (50 mg/kg/dose) in three different concentrations of Tween 80 (0.02%, 0.2% and 1%). On day 7 following CP administration all 9 animals from each of the […] were bled and then sacrificed by cervical dislocation. Spleens were removed and weighed, and complete blood cell counts performed.

[14] = test system: hematopoietic recovery after cyclophosphamide; experiment: Dose-response, hematopoietic recovery after cyclophosphamide (Example 45); assay type: in vivo, Balb/C mice
Description: Cyclophosphamide (CP) (275 mg/kg, i.p.) was administered to 45 Balb/C female mice weighing approximately 20 grams each. Twenty-four hours later and each day thereafter for a total of 6 days, mice were given a 0.4 ml i.p. injection of either physiological saline (controls), Tween 80 (0.5%), or one of three different doses of octanoylguanosine ([…]). On day 7 following CP administration all 9 animals from each of the […] were bled and then sacrificed by cervical dislocation. Spleens were removed and weighed, and complete blood cell counts performed.

[15] = test system: hematopoietic recovery after cyclophosphamide; experiment: Hematopoietic recovery after cyclophosphamide (Example 59); assay type: in vivo, Balb/C mice; conditions: days 5 and 7; 25 mg/kg/day i.p.
Description: Cyclophosphamide (CP) (275 mg/kg, i.p.) was administered to 28 Balb/C female mice weighing approximately 20 grams each. Twenty-four hours later and each day for 4 days thereafter, mice were given a 0.4 ml i.p. injection of either physiological saline (controls) or palmitoyl-8-aminoguanosine (25 mg/kg/day in 0.2% Tween 80). On days 5 and 7 following CP administration 7 animals from each of the 2 groups were bled and then were sacrificed by cervical dislocation. Spleens were removed and weighed, and complete blood cell counts performed.

[16] = day 5, palmitoylguanosine 2.0, palmitoyldeoxyguanosine 1.0 μmoles/mouse
[17] = day 7, palmitoylguanosine 1.0 and 2.0, palmitoyldeoxyguanosine 1.0 μmoles/mouse

Nc1nc2c(ncn2[C@@H]2O[C@H](CO)[C@@H](O)[C@H]2O)c(=O)[nH]1 [guanosine]
effect on induced maturation of HL-60 cells [1]: prevented their induced maturation into functional neutrophils | Neutrophils [2]: significantly more | spleen weight [2]: significantly heavier spleens | total white blood cells [2]: significantly more | leukocyte counts, leukocytosis (leukocytes): 11,000 per mm^3 | spleen weight [3]: No significant difference

CCCCCCCCCCCCCCCC(=O)OC[C@H]1O[C@@H](n2cnc3c(=O)[nH]c(N)nc32)C[C@@H]1O [palmitoyldeoxyguanosine]
spleen weight [4]: significantly elevated | number of myelocytes ([4]; femoral bone marrow): significantly greater | spleen weight ([5]; day 5, 0.2 μmoles/mouse or greater): significantly elevated | white blood cell counts ([5]; day 5, 0.4 μmoles/mouse or greater): significantly elevated | white blood cell counts ([5]; day 7, all doses): statistically significant differences were seen at all doses | spleen weight ([5]; day 7, all doses except 0.04 μmoles/mouse): significantly elevated | total neutrophil counts ([5]; days 5 and 7, all 6 doses): significantly elevated | spleen weight [6]: significantly elevated | total neutrophil counts [6]: significantly elevated | white blood cell counts [6]: significantly elevated | spleen weight [7]: significantly elevated | total neutrophil counts [7]: significantly elevated | white blood cell counts [7]: significantly elevated | prevention of apoptotic cell death due to IL-3 deprivation [8]: significantly reduced the percentage of dead cells | Lymphocytes ([9]; day 10, i.p.): significantly elevated | Platelets ([9]; day 10, i.p.): significantly elevated | spleen weight ([9]; day 10, i.p.): significantly elevated | total neutrophil counts ([9]; days 5, 7 and 10, i.p.): significantly elevated | white blood cell counts ([9]; days 5, 7 and 10, i.p.): significantly elevated | spleen weight [10, 16]: significantly elevated | total neutrophil counts [10, 16]: significantly elevated | white blood cell counts [10, 16]: significantly elevated | spleen weight [10, 17]: significantly elevated | total neutrophil counts [10, 17]: significantly elevated | white blood cell counts [10, 17]: significantly elevated | relative potency in elevating spleen weight and cell counts ([10]; vs palmitoylguanosine): more potent in elevating these parameters than the same or even a 2-fold greater dose of palmitoylguanosine | platelet counts ([11]; day 5, 1 μmole/mouse, 3 days before 5-FU): significantly elevated | platelet counts ([11]; day 8): significantly higher | spleen weight ([11]; day 8): significantly higher | total neutrophil counts ([11]; day 8): significantly higher | lymphocyte counts ([11]; day 11): significantly higher | platelet counts ([11]; day 11): significantly higher | spleen weights ([11]; day 11): significantly higher | total neutrophil counts ([11]; day 11): significantly higher | total white blood cell counts ([11]; day 11): significantly higher

CCCCCCCC(=O)OC[C@H]1O[C@@H](n2cnc3c(=O)[nH]c(N)nc32)[C@H](O)[C@@H]1O
spleen weight ([12]; Tween 80 0.5%, octanoylguanosine 5.0 μmoles/mouse/day): significantly greater | Neutrophils ([12]; vs control or Tween 80): significantly greater numbers | peripheral white blood cells (WBC) ([12]; vs control or Tween 80): significantly greater numbers | histological examination of spleens ([12]; vs saline and Tween 80): much greater lymphopoiesis (increased white pulp) and myelopoiesis (increased red pulp) | spleen weight [3]: significantly larger spleens | neutrophil counts ([13]; 50 mg/kg in 0.02% and 0.2% Tween 80, vs saline): significantly different from controls | neutrophil counts ([13]; 50 mg/kg in 0.2% vs in 0.02% Tween 80): significantly higher | spleen weight ([14]; day 7, 0.5, 2.5 or 5 μmoles/mouse/day, vs controls and Tween 80): significantly larger spleens | spleen size ([14]; day 7, highest dose (10 μmoles)): largest spleens | total number of leukocytes ([14]; day 7, vs control): significantly increased above control values in a dose-dependent manner | total number of neutrophils ([14]; day 7, vs control): significantly increased above control values in a dose-dependent manner | accelerating regeneration of hematopoiesis ([14]; middle dose 2.5 μmoles): nearly as effective as the highest dose

CCCCCCCCCCCCCCCC(=O)OC[C@H]1O[C@@H](n2c(N)nc3c(=O)[nH]c(N)nc32)[C@H](O)[C@@H]1O [palmitoyl-8-aminoguanosine]
Neutrophils [15]: significantly elevated | spleen weight [15]: significantly elevated

— patent US6054441A, “Oxypurine nucleosides and their congeners, and acyl derivatives thereof, for improvement of hematopoiesis” (priority 1995, dated 2000)
